Tested on: Leishmania donovani promastigotes
Test: Viability of Leishmania donovani promastigotes (MTT reduction)
Assay type: cell-based
Settings: L. donovani promastigotes 20 × 10^6 cells/mL, 4 h, 26 °C, full range of concentrations assayed (comparison 15 vs 16 at 5, 10 and 25 μM)
Protocol: The cellular viability in the presence of the peptides was assessed by the MTT reduction at both stages of the parasite after 4 h incubation (Figure 5).
The experiments were carried out with Leishmania donovani promastigotes (MHOM/SI/00/1S-2D strain) and Leishmania pifanoi amastigotes (MHOM/VE/60/Ltrod strain), respectively. Promastigotes were grown at 26 °C in RPMI medium supplemented with 10% of FCS, 2 mM L-glutamine, 20 U/mL unicillin 20 plus 48 µg/mL gentamicin.
The viability assays were carried out using the reduction of MTT as described. The parasites were aliquoted into 96-microwell plates at a final concentration of 20 × 10^6 cells/mL in HBSS supplemented with 10 mM D-glucose. The peptides were incubated for 4 h at the corresponding peptide concentration at 26 °C or 32 °C for promastigotes and axenic amastigotes, respectively. […] The resulting formazan was solubilized with […] (1% final concentration) and read at 595 nm in a Bio-Rad 640 microplate reader.
(a) L. pifanoi axenic amastigotes. […] Axenic Leishmania parasites (20 × 10^6 cells/mL) were incubated with the peptides, and MTT reduction measured immediately after 4 h incubation. […]
Figure 8 Viability of Leishmania donovani promastigotes treated with Dox-conjugates 15 and 16 along with Dox and Dox-TAT. Parasites were incubated with the respective reagents (20 × 10^6 cells/mL, 4 h, 26 °C), and MTT reduction measured afterwards. […]

COc1cccc2c1C(=O)c1c(O)c3c(c(O)c1C2=O)C[C@@](O)(C(=O)CO)C[C@@H]3O[C@H]1C[C@H](N)[C@H](O)[C@H](C)O1 [doxorubicin]
Toxicity towards promastigotes (in words): did not show any toxicity

— paper PMC7590151, “Chiral Cyclobutane-Containing Cell-Penetrating Peptides as Selective Vectors for Anti-Leishmania Drug Delivery Systems” (International Journal of Molecular Sciences, 2020)
